Measured values taken from PMC7316778 (Nature Communications, 2020).
Values joined by “and” are separate entries in the source; they are usually repeats but may differ in a detail not shown here. Equal entries are not always repeated. Where two headings read alike, the source gives them in different places.

Columns and labels:
CDC42 BPA (MRCKA) = CDC42 BPA (MRCKA) (Homo sapiens, UniProt Q5VT25); test: SelectScreen kinase assay
Protocol: (§1) Selectivity profiling assays were performed by the Invitrogen SelectScreen™ Services. […] The concentration of ATP was selected to be equal to the KM, unless indicated otherwise.

CDK11/cyclin C = CDK11/cyclin C (Homo sapiens, UniProt Q9BWU1); test: SelectScreen kinase assay; conditions: for Inhibition at 1 µM (%): CDK11/cyclin C, LanthaScreen Binding
Protocol: as §1

CDK7/cyclin H/MNAT1 = CDK7/cyclin H/MNAT1 (Homo sapiens, UniProt P50613); test: SelectScreen kinase assay
Protocol: as §1

DDR2 = DDR2 (Homo sapiens, UniProt Q16832); test: SelectScreen kinase assay
Protocol: as §1

EPHB3 = molecular target: T1, EPHB3 (Homo sapiens, UniProt P54753); test: SelectScreen kinase assay; conditions: for Inhibition at 1 µM (%): EPHB3, ZLYTE, ATP Km app
T1 sequence (P54753 34-998): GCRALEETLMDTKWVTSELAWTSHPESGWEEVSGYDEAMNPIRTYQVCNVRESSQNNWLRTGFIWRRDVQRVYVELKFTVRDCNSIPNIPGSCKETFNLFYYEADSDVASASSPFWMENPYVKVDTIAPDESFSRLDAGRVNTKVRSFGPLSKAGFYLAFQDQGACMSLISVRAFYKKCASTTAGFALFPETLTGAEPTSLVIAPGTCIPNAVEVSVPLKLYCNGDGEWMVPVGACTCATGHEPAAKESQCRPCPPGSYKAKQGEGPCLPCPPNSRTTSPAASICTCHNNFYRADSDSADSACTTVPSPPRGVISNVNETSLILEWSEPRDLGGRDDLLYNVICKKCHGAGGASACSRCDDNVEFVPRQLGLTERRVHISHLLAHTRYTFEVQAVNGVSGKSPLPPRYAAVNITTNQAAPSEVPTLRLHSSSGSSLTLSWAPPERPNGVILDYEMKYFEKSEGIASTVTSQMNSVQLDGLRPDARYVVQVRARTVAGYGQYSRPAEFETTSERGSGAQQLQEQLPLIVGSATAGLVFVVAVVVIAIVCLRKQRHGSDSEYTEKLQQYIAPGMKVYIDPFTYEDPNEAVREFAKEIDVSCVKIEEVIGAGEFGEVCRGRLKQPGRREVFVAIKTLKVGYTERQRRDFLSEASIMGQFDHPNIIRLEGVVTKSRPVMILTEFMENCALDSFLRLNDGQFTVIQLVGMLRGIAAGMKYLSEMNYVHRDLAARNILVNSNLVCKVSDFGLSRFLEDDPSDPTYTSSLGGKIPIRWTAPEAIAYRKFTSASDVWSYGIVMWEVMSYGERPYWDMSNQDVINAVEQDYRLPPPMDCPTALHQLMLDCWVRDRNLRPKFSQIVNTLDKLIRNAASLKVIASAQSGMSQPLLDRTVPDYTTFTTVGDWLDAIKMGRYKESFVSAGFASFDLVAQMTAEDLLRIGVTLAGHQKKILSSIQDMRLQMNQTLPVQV
Protocol: as §1

GRK7 = GRK7 (Homo sapiens, UniProt Q8WTQ7); test: SelectScreen kinase assay; conditions: 1 h, 1 μM WEL028, 1 h preincubation
Protocol: as §1

INSRR (IRR) = INSRR (IRR) (Homo sapiens, UniProt P14616); test: SelectScreen kinase assay; conditions: 1 h, 1 μM WEL028, 1 h preincubation
Protocol: as §1

JAK1 = JAK1 (Homo sapiens, UniProt P23458); test: SelectScreen kinase assay; conditions: for Inhibition at 1 µM (%): JAK1, ZLYTE, ATP Km app
Protocol: as §1

MAP4K5 (KHS1) = MAP4K5 (KHS1) (Homo sapiens, UniProt Q9Y4K4); test: SelectScreen kinase assay; conditions: 1 h, 1 μM WEL028, 1 h preincubation
Protocol: as §1

MARK3 = MARK3 (Homo sapiens, UniProt P27448); test: SelectScreen kinase assay
Protocol: as §1

MST1R (RON) = MST1R (RON) (Homo sapiens, UniProt Q04912); test: SelectScreen kinase assay
Protocol: as §1

PIP5K1B = PIP5K1B (Homo sapiens, UniProt O14986); test: SelectScreen kinase assay; conditions: for Inhibition at 1 µM (%): PIP5K1B, Adapta, ATP 10
Protocol: as §1

RPS6KB1 (p70S6K) = RPS6KB1 (p70S6K) (Homo sapiens, UniProt P23443); test: SelectScreen kinase assay
Protocol: as §1

SNF1LK2 = SNF1LK2 (Homo sapiens, UniProt Q9H0K1); test: SelectScreen kinase assay
Protocol: as §1

STK39 (STLK3) = STK39 (STLK3) (Homo sapiens, UniProt Q9UEW8); test: SelectScreen kinase assay
Protocol: as §1

TAOK1 = TAOK1 (Homo sapiens, UniProt Q7L7X3); test: SelectScreen kinase assay
Protocol: as §1

FER^WT = FER^WT (Homo sapiens, UniProt P16591); test: In vitro TR-FRET kinase assay
[1] = 1 h, 1 μM WEL028, 1 h preincubation
[2] = read-out: Inhibition at 1 µM (%), 1 µM, LanthaScreen Binding

CDK11/cyclin C, sequence (Q9BWU1 whole entry): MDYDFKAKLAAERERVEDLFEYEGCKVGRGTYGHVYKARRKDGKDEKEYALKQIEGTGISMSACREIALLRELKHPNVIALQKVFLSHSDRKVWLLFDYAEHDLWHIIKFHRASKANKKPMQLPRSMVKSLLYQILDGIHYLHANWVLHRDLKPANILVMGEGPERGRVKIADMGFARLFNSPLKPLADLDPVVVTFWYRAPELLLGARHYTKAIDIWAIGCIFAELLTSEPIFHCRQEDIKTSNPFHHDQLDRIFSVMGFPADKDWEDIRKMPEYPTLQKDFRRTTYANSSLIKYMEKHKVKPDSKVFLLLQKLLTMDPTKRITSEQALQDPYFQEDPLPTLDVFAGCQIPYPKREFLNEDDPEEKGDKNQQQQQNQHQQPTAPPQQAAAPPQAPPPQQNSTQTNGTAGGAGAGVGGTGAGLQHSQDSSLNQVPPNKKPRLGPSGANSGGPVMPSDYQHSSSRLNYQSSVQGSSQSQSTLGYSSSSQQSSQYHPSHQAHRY
CDK11/cyclin C, sequence (P24863 whole entry partner): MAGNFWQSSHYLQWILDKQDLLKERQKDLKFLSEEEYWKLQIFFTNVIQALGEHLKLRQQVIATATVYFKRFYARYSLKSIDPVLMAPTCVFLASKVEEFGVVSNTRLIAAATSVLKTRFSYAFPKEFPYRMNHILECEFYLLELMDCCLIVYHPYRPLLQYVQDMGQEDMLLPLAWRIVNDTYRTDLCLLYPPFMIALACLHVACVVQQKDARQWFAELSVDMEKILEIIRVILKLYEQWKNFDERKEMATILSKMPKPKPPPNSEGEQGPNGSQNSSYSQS
PIP5K1B, sequence (O14986 whole entry): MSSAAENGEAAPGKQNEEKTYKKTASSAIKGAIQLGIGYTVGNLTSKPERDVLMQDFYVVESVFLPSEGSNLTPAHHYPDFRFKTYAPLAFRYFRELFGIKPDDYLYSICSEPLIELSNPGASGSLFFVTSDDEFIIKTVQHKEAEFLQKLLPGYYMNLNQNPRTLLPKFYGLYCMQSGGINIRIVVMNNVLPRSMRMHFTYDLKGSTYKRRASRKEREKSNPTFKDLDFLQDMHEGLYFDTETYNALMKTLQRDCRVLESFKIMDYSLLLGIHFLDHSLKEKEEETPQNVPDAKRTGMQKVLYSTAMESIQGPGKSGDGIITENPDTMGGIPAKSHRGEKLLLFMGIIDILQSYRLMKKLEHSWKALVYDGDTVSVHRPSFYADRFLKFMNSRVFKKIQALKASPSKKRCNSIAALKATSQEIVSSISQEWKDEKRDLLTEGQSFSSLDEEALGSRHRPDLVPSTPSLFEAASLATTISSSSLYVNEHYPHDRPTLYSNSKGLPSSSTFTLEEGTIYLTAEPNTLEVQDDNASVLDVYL
JAK1, sequence (P23458 whole entry): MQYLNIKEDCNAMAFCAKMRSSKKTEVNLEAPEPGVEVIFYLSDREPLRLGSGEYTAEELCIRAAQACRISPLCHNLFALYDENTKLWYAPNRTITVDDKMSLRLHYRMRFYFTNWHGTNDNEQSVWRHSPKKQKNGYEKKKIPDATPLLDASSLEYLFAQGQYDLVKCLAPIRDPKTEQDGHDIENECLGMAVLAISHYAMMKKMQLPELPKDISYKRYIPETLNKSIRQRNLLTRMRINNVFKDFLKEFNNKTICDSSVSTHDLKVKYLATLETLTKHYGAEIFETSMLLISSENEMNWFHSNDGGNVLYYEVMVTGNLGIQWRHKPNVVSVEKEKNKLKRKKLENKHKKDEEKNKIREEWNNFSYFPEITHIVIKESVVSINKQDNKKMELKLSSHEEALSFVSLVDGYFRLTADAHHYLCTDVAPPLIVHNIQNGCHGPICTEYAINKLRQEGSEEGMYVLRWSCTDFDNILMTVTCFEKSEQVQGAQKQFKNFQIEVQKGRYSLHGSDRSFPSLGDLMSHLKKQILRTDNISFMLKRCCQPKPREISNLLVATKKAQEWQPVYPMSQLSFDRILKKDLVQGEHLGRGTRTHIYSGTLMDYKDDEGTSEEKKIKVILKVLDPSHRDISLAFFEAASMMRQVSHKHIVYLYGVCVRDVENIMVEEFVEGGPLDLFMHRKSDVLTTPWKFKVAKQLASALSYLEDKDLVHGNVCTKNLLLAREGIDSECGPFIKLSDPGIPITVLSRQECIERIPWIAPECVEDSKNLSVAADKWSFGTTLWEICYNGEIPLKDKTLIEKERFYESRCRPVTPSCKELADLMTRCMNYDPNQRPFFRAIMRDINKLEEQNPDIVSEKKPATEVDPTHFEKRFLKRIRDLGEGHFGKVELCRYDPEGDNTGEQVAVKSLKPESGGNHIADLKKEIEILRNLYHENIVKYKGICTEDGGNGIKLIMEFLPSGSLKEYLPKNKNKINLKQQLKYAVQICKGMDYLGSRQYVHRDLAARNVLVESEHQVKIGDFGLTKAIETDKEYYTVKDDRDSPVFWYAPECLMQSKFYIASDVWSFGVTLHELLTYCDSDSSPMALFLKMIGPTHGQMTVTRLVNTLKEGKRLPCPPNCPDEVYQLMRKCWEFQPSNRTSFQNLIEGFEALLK
MST1R (RON), sequence (Q04912 25-1400): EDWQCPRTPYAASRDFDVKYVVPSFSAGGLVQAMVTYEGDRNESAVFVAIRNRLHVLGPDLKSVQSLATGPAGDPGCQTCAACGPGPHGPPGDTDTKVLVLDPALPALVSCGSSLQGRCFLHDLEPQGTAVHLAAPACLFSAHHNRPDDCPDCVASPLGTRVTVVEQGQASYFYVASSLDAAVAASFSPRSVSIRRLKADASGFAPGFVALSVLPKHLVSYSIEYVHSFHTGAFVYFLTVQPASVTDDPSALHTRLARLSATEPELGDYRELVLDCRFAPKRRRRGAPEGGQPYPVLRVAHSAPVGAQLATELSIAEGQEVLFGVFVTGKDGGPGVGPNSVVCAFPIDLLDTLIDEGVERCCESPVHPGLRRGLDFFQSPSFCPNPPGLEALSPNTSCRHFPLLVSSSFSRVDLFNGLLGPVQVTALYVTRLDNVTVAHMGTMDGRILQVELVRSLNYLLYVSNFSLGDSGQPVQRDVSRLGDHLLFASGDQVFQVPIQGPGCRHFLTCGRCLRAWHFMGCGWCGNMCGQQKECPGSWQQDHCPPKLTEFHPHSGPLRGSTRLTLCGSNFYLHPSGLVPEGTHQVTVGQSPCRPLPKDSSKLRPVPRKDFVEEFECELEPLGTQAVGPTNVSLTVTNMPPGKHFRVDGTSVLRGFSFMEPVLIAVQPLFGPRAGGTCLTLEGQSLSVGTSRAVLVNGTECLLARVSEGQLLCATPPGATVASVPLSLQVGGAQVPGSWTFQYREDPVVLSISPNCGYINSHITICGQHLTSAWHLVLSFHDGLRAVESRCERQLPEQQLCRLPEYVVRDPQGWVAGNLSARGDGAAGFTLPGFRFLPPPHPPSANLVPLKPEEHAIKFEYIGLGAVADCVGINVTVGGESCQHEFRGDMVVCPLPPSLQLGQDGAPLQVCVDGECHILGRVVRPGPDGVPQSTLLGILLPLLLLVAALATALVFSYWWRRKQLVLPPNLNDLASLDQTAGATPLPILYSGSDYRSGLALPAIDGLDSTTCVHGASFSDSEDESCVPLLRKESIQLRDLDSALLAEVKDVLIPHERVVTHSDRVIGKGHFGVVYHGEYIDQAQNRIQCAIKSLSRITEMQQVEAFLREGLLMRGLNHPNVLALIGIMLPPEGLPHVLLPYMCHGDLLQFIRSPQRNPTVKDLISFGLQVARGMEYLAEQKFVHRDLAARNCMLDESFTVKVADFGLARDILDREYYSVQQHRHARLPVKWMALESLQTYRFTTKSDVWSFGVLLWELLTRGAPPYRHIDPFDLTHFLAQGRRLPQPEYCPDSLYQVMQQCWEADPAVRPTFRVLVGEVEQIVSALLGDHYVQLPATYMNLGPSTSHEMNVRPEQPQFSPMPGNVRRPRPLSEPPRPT
MARK3, sequence (P27448 whole entry): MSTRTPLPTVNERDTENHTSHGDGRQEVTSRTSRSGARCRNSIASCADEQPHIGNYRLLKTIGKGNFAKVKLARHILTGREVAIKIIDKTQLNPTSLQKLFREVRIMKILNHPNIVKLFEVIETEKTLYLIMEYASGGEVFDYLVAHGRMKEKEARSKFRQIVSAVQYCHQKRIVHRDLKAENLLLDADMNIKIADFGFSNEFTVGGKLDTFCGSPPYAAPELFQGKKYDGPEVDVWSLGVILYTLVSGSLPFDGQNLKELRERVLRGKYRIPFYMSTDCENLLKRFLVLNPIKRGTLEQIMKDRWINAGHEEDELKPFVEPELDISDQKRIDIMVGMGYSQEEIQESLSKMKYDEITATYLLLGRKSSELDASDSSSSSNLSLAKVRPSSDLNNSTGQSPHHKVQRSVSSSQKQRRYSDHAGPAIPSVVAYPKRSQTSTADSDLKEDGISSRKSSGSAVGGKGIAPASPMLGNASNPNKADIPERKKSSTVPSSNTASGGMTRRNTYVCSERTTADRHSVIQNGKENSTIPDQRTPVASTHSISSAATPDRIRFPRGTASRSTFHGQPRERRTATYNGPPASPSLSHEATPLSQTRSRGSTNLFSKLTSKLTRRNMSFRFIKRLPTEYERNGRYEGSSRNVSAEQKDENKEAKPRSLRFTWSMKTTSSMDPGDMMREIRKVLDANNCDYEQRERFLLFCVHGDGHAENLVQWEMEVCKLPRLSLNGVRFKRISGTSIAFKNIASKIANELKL
FER^WT, sequence (P16591 448-820): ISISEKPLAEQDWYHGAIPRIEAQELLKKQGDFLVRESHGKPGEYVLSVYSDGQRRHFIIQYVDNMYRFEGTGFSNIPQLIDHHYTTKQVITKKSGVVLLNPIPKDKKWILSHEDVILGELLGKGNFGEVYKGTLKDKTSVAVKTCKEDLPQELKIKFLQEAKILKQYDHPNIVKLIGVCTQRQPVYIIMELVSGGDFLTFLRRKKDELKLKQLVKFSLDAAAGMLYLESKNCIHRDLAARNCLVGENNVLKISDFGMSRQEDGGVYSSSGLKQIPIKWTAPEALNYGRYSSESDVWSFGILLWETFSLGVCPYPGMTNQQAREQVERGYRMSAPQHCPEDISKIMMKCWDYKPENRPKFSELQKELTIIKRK

`C#CCOc1ccc(Nc2ncc(Cl)c(Nc3ccccc3NC(=O)C=C)n2)c(OC)c1` [Compound 6] was tested, and the inhibition at 1 µM (CDC42 BPA (MRCKA); [1]) was -7%, the “Inhibition at 1 µM (%)” value (CDC42 BPA (MRCKA); CDC42 BPA (MRCKA), 1 µM, ZLYTE, ATP Km app) was -20% and the “Inhibition (%)” value (CDK11/cyclin C; 1 μM WEL028, 1 h preincubation) was 5%. For the same compound, the “Inhibition at 1 µM (%)” value (CDK11/cyclin C) was 2%, the “Inhibition at 1 µM (%)” value (CDK11/cyclin C; listed as WEL028, 1 µM) was 7% and the inhibition at 1 µM (CDK7/cyclin H/MNAT1; [1]) was 6%. For the same compound, the “Inhibition at 1 µM (%)” value (CDK7/cyclin H/MNAT1; CDK7/cyclin H/MNAT1, 1 µM, Adapta, ATP Km app, listed as WEL028, 1 µM) was 2% and 11%, the inhibition at 1 µM (DDR2; [1]) was 3% and the inhibition at 1 µM (DDR2; read-out: Inhibition at 1 µM (%), DDR2, 1 µM, LanthaScreen Binding) was 2%. The inhibition at 1 µM (EPHB3; [1]) was 1%, the “Inhibition at 1 µM (%)” value (EPHB3) was 2% and the “Inhibition at 1 µM (%)” value (EPHB3; listed as WEL028, 1 µM) was 0%. The inhibition at 1 µM (GRK7) was 11%, the inhibition at 1 µM (INSRR (IRR)) was 9% and the “Inhibition (%)” value (JAK1; 1 μM WEL028, 1 h preincubation) was -3%. The “Inhibition at 1 µM (%)” value (JAK1) was -2%, the “Inhibition at 1 µM (%)” value (JAK1; listed as WEL028, 1 µM) was -3% and the inhibition at 1 µM (MAP4K5 (KHS1)) was -5%. For the same compound, the inhibition at 1 µM (MARK3; [1]) was 6%, the “Inhibition at 1 µM (%)” value (MARK3; MARK3, 1 µM, ZLYTE, ATP Km app, listed as WEL028, 1 µM) was 8% and the inhibition at 1 µM (MARK3; read-out: Inhibition at 1 µM (%), MARK3, 1 µM, ZLYTE, ATP Km app) was 5%. For the same compound, the inhibition at 1 µM (MST1R (RON); [1]) was 5%, the “Inhibition at 1 µM (%)” value (MST1R (RON); MST1R (RON), 1 µM, ZLYTE, ATP Km app, listed as WEL028, 1 µM) was 10% and 0% and the inhibition at 1 µM (PIP5K1B; [1]) was -11%. The “Inhibition at 1 µM (%)” value (PIP5K1B) was -13%, the “Inhibition at 1 µM (%)” value (PIP5K1B; listed as WEL028, 1 µM) was -9% and the “Inhibition at 1 µM (%)” value (RPS6KB1 (p70S6K); 1 µM, ZLYTE, ATP Km app) was 15%. For the same compound, the inhibition at 1 µM (RPS6KB1 (p70S6K); [1]) was 4%, the “Inhibition at 1 µM (%)” value (SNF1LK2; 1 µM, ZLYTE, ATP Km app, listed as WEL028, 1 µM) was -8% and -5% and the inhibition at 1 µM (SNF1LK2; [1]) was -6%. The “Inhibition at 1 µM (%)” value (STK39 (STLK3); 1 µM, LanthaScreen Binding, listed as WEL028, 1 µM) was 6%, the inhibition at 1 µM (STK39 (STLK3); [1]) was 8% and the inhibition at 1 µM (STK39 (STLK3); [2]) was 11%. The inhibition at 1 µM (TAOK1; [1]) was 23%, the inhibition at 1 µM (TAOK1; [2]) was 24% and the IC50 (FER^WT) was 501 nM.
